Assay results: patent publication US20170176477A1 (Metanomics Health GmbH, priority 2012, published 2017)
Read-outs that look alike come from different tables or passages of the source.

What was measured:
[1] = rat, in vivo
Protocol: (§1) Animals accessed feed and water ad libitum.
(§2) For mass spectrometry-based MxP™ Broad Profiling analyses samples were extracted by a proprietary method yielding a lipid and polar fraction which were used for GC-MS (gas chromatography-mass spectrometry) and LC-MS/MS (liquid chromatography-MS/MS) analyses, respectively. For GC-MS analytics the samples were sequentially derivatized before measurement and the non-polar fraction was treated with methanol under acidic conditions to yield the fatty acid methyl esters derived from both free fatty acids and hydrolyzed complex lipids. The non-polar and polar fractions were further derivatized before GC-MS analysis (Roessner et al., Technical advance: simultaneous analysis of metabolites in potato tuber by gas chromatography-mass spectrometry. Plant J. 2000; 23:131-42). In LC-MS/MS analysis a metanomics proprietary technology was applied which allows target and high sensitivity MRM (Multiple Reaction Monitoring) profiling in parallel to full scan analyses (patent WO2003073464). For LC-MS analysis, both fractions were reconstituted in appropriate solvent mixtures. HPLC (high-performance liquid chromatography) was performed on reversed phase separation columns. Data were normalized by the corresponding median of reference samples which derived from a pool formed from aliquots of all samples to account for inter- and intra-instrumental variation. Therefore, pool-normalized semi-quantitative metabolite data were obtained.

[2] = Metabolite profiling of plasma (GC-MS and LC-MS/MS) of rats treated with APAP vs. vehicle; details: for plasma metabolite in treated (1250 mg/kg) vs. untreated animals: FIG. 1, rats, 1250 mg/kg APAP vs. vehicle, most obvious at 6 and 24 hours; for 1250 mg vs. 0 mg (6 h) Ratio / 1250 mg vs. 0 mg (3 d) Ratio / 1250 mg vs. 0 mg (7 d) Ratio: rat plasma metabolite level, treated with 1250 mg/kg APAP vs. untreated, ANOVA; for 1250 mg vs. 0 mg (3 d) Ratio: 3 days; for 1250 mg vs. 0 mg (7 d) Ratio: 7 days
Protocol: as §1, §2

[3] = test system: mouse liver tissue; details: cited from earlier work
[4] = test system: mouse/rat liver tissue; details: after administration of hepatotoxic doses of carbon tetrachloride; cited from earlier work

| Compound | differences between the test and the control samples [1] | plasma metabolite in treated (1250 mg/kg) vs. untreated animals [2] | 1250 mg vs. 0 mg (6 h) Ratio [2] | 1250 mg vs. 0 mg (3 d) Ratio [2] | 1250 mg vs. 0 mg (7 d) Ratio [2] | plasma metabolite in treated (1250 mg/kg) vs. untreated animals [1] | tissue levels of putrescine ([3]; 18 hours after administration of acetaminophen) | putrescine in mouse liver tissue after treatment with acetaminophen ([3]; mouse liver tissue) | tissue levels of putrescine ([3]; tissue samples obtained after 6 and 12 hours) | putrescine in mouse/rat liver tissue [4] |
| --- | --- | --- | --- | --- | --- | --- | --- | --- | --- | --- |
| CC(=O)Nc1ccc(O)cc1 [APAP, N-(4-hydroxyphenyl)acetamide, reference compound] | no statistically significant differences | – | – | – | – | – | – | – | – | – |
| NCCCCN [Putrescine, Butane-1,4-diamine] | – | – | – | – | – | increased | Elevated | increased | no elevated putrescine levels | increased |
| O[C@H]1[C@H](O)[C@@H](O)[C@H](O)[C@@H](O)[C@H]1O [myo-Inositol, lipid fraction, myo-inositol] | – | increased | 1.28 | 1.04 | 1.02 | – | – | – | – | – |

More lines, main results first:

| differences between the test and the control samples [1] | plasma metabolite in treated (1250 mg/kg) vs. untreated animals [2] | 1250 mg vs. 0 mg (6 h) Ratio [2] | 1250 mg vs. 0 mg (3 d) Ratio [2] | 1250 mg vs. 0 mg (7 d) Ratio [2] | plasma metabolite in treated (1250 mg/kg) vs. untreated animals [1] | Compound | tissue levels of putrescine ([3]; 18 hours after administration of acetaminophen) | putrescine in mouse liver tissue after treatment with acetaminophen ([3]; mouse liver tissue) | tissue levels of putrescine ([3]; tissue samples obtained after 6 and 12 hours) | putrescine in mouse/rat liver tissue [4] |
| --- | --- | --- | --- | --- | --- | --- | --- | --- | --- | --- |
| – | increased | 1.52 | 1.06 | 1.07 | – | NCCOP(=O)(O)O [O-Phosphoethanolamine, o-phosphoethanolamine] | – | – | – | – |
| – | decreased | 0.95 | 1.10 | 1.02 | – | Lysophosphatidylcholine (C18:1) | – | – | – | – |
